The record followed here is patent publication US20090149482A1, “STEREOCHEMICALLY DEFINED DIPEPTIDE ESTERS OF ANTIVIRAL AGENTS FOR ENHANCED OCULAR TREATMENT” (priority 2001, published 2009).

Data set [1] can be described thus: in vitro. As to conditions: human, Caco-2, pH 7.4.
A further data set in a line: physchem. As to conditions: buffer, pH 5.6.
A short description of data set [2]: in vitro. The note with it: human.
Data set [3] can be described thus: in vitro. As to conditions: human. The source holds these as a separate data set.
The conditions of data set [4]: rabbits, i.v. infusion, aqueous humor.
The test system of another data set is HSV-1 strain McKrae. Briefly: HSV-1 epithelial keratitis rabbit model, topical treatment, SLE scores. The note with it: 14 days post-inoculation, 1% topical 5 times per day. It is filed as in vivo. From the text: The rabbit eye is an excellent model to study acute HSV-1 epithelial keratitis. Also, spontaneous and induced ocular HSV-1 shedding and corneal epithelial disease in rabbits has been used as a model of human ocular HSV-1 reactivation and recurrence. HSV-1 strain McKrae was used in studies for epithelial keratitis. HSV-1 strain RE was used for studies of HSV stromal keratitis.
i) Epithelial Keratitis: A group of ten rabbits was used to study each compound. Both eyes of all rabbits were used. An aqueous vehicle (like a placebo) and one positive control were obtained using 1% TFT (Viroptic®). Each compound at 1% concentration (TFT=33 mM, Gly-Gly-ACV=26.6 mM, Val-Val-ACV=18.6 mM) were applied (50 μl) topically 5 times per day every two hours starting at 8:00 a.m. and ending at 4:00 p.m. The treatment began on the 3rd post-inoculation day and continued for 5 consecutive days. Slit-lamp examinations were performed once every day for 8 days and thereafter once every other day until lesions resolved.

The conditions of data set [5]: rat, in vivo, po.

Bounds are passed on as bounds.

For the compound `CC(C)[C@H](N)C(=O)OCCOCn1cnc2c(=O)[nH]c(N)nc21` [Val-ACV, L-Valine-acyclovir], the results for the half-life in “in vitro [1]” and in “physchem” were 2.06 ± 0.138 h and around 72 h, respectively. The “inhibition in transport in presence of Gly-Sar” value in the data set on Caco-2 monolayers worked out at 47 % inhibition. The CC50 was above 277 µM in “in vitro [2]” (CC50 (concentration required to inhibit cell proliferation by 50%), HSV-1); above 138 µM in the data set “in vitro [2]” (CC50, EBV column); above 277 µM in “in vitro [2]” (CC50, HCMV column); above 277 µM in the data set “in vitro [2]” (CC50, HSV-2 column); above 100 µM in “in vitro [2]” (CC50, VZV column). Besides, the Papp in “in vitro [3]” (Caco-2, pH 6) stood at 3.01 ± 0.21 ×10⁻⁶ cm/s; in the data set “in vitro [3]” (Caco-2, pH 7.4), 5.67 ± 1.13 ×10⁻⁶ cm/s.
Turning to `CC(C)C(N)C(=O)NC(C(=O)OCCOCn1cnc2c(=O)[nH]c(N)nc21)C(C)C` (stereo not drawn) [Val-Val-ACV, Val-Valacyclovir], the “MRT(aqueous)” value in data set [4] was “*188.39 min”. For the same compound, the “Concentration required to achieve an SLE Score of 0.3” value in the data set on HSV-1 strain McKrae was 18.6 mM. Moreover, in data set [5], the “amino acid intermediate metabolite after oral administration” value was “no intact amino acid intermediate metabolite VACV could be detected”.

As a reminder, the half-life is how long it takes for the measured level to halve. Low readings indicate fast loss, high ones slow loss. One may read the Papp as a coefficient for how fast a substance crosses the barrier. High values mean fast passage, low ones slow passage.
